In ChEMBL document CHEMBL3763010, “Inhibition of monoamine oxidase by benzoxathiolone analogues” (Bioorg Med Chem Lett, 2016):

Assays:
Homo sapiens = organism: Homo sapiens; experiment: Selectivity index, ratio of IC50 for recombinant human MAO-A to recombinant human MAO-B
[1] = Lipophilicity, logP of the compound by shake-flask method; assay type: physicochemical; settings: octanol/water
[2] = target: T1, Amine oxidase [flavin-containing] A (Homo sapiens, UniProt P21397)
T1 sequence (P21397 whole entry): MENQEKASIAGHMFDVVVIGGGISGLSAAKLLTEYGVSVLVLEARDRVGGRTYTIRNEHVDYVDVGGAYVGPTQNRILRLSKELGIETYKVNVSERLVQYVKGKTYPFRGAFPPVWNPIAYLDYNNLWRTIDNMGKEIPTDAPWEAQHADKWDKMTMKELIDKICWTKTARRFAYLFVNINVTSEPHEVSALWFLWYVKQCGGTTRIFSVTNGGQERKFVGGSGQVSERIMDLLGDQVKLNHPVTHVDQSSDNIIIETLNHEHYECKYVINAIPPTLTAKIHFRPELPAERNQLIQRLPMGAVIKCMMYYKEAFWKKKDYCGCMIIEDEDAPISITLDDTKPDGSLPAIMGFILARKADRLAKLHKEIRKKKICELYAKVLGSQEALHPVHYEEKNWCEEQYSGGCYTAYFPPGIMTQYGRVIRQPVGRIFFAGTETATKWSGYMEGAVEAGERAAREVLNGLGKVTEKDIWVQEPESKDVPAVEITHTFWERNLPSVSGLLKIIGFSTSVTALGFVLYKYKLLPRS
Description: Inhibition of recombinant human MAO-A after 20 mins using 50 uM kynuramine as substrate by fluorescence spectrophotometry

[3] = target: T2, Amine oxidase [flavin-containing] B (Homo sapiens, UniProt P27338)
T2 sequence (P27338 whole entry): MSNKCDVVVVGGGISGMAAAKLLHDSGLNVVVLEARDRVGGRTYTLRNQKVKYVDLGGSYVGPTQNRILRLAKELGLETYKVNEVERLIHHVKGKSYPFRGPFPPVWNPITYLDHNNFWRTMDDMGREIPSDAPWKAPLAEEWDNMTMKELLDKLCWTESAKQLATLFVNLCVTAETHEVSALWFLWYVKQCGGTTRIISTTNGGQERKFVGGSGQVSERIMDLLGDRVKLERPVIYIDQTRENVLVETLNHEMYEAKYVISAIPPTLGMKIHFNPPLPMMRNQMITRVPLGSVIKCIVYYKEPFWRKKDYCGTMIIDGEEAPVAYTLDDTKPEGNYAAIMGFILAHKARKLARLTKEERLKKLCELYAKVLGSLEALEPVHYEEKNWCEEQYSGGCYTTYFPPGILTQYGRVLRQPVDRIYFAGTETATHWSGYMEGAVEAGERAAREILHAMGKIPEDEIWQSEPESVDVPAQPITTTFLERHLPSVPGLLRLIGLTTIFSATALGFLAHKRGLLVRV
Description: Inhibition of recombinant human MAO-B after 20 mins using 50 uM kynuramine as substrate by fluorescence spectrophotometry

[4] = target: T1, Amine oxidase [flavin-containing] A; experiment: Reversible inhibition of recombinant human MAO-A assessed as enzyme activity recovered pretreated with compound for 15 mins followed by addition of 50 uM kynuramine as substrate measured after 24 hrs by dialysis; design: scale not given: the % may be the effect or the level left
[5] = target: T1, Amine oxidase [flavin-containing] A; experiment: Inhibition of recombinant human MAO-A assessed as enzyme activity pretreated with compound for 15 mins followed by addition of 50 uM kynuramine as substrate measured after 24 hrs; design: scale not given: the % may be the effect or the level left
[6] = target: T2, Amine oxidase [flavin-containing] B; experiment: Competition inhibition of recombinant human MAO-B pretreated with compound for 15 mins followed by addition of 50 uM kynuramine as substrate by Lineweaver-Burk plot method
[7] = target: T2, Amine oxidase [flavin-containing] B; experiment: Inhibition of recombinant human MAO-B assessed as enzyme activity pretreated with compound for 15 mins followed by addition of 50 uM kynuramine as substrate measured after 24 hrs; design: scale not given: the % may be the effect or the level left
[8] = target: T1, Amine oxidase [flavin-containing] A; experiment: Competition inhibition of recombinant human MAO-A pretreated with compound for 15 mins followed by addition of 50 uM kynuramine as substrate by Lineweaver-Burk plot method
[9] = target: T2, Amine oxidase [flavin-containing] B; experiment: Inhibition of recombinant human MAO-B pretreated with compound for 15 mins followed by addition of 50 uM kynuramine as substrate by Michaelis-Menten method
[10] = target: T1, Amine oxidase [flavin-containing] A; experiment: Inhibition of recombinant human MAO-A activity pretreated with compound for 15 mins followed by addition of 50 uM kynuramine as substrate by Michaelis-Menten method

Ratio IC50 (Homo sapiens)	logP [1]	IC50 [2] [nM]	IC50 [3] [nM]	Activity [5] [%]	Ki [6] [nM]	Activity [7] [%]	Ki [8] [nM]	Ki [9] [nM]	Ki [10] [nM]	SMILES	Activity [4] [%]
101	3.8	5140	51							O=c1oc2cc(OCc3ccccc3)ccc2s1	
		26700	62							O=C1OCc2cc(OCc3ccccc3)ccc21	

Second part, the compound before the results:

SMILES	Ratio IC50 (Homo sapiens)	logP [1]	IC50 [2] [nM]	IC50 [3] [nM]	Activity [5] [%]	Ki [6] [nM]	Activity [7] [%]	Ki [8] [nM]	Ki [9] [nM]	Ki [10] [nM]	Activity [4] [%]
C#CCN(C)Cc1ccccc1 [PARGYLINE]											0.9
O=c1oc2cc(O)ccc2s1 [TIOXOLONE]	1		9770	9570							
O=c1oc2cc(OCc3ccc(Cl)cc3)ccc2s1	63	5.61	189	3	73	3.5	39	360	3.9	560	93
